This note sets out measurements from EPA's ToxValDB 9.5 (doi:10.2903/j.efsa.2005.28r).

Values after ≈ are worked out from the molar mass of the structure shown.

One data set has as its system Aphidius rhopalosiphi. As to conditions: acute; duration: 7 days; mortality.
A further data set deals with Oncorhynchus mykiss. The note with it: acute; duration: 96 hours; mortality.
The test system of the next data set is Pimephales promelas. The note with it: chronic/long-term; duration: 35 days; growth.
A further data set deals with Bibionidae. The note with it: chronic/long-term, duration: 28 days.
A further data set concerns Bird. The note with it: reproductive; oral; feed.
For the next data set, the system named is Daphnia magna. The note with it: chronic/long-term; duration: 21 days; reproduction.
The test system of another data set is Colinus virginianus. As to conditions: acute, oral, mortality.
The test system of the next data set is Tagia sp. As to conditions: acute; duration: 14 days; mortality.
The next data set relates to Apis mellifera. The note with it: acute, mortality.

As usually defined, the LOAEL is the lowest tested level that showed an adverse finding. In general, NOAEL refers to the highest tested level that showed no adverse finding. Turning to `CCCN(CCC)c1c([N+](=O)[O-])cc(C(F)(F)F)cc1[N+](=O)[O-]` [Trifluralin], the LEL in the data set on Aphidius rhopalosiphi is 1200 g/ha. Further, the LC50 in the data set on Oncorhynchus mykiss was 0.088 µg/mL (≈ 0.262 µM); with Colinus virginianus (diet), 2970 mg/kg; in the data set with Tagia sp. it was more than 1000 mg/kg. The NOEC in the data set with Pimephales promelas turned out to be 0.0003 mg/L; in the data set with Bibionidae (development) it was 0.25 mg/L; in the data set with Bibionidae (mortality) it was 810 mg/kg; in the data set with Bird, 1000 mg/kg; in the data set with Daphnia magna, 0.0507 mg/L. The LD50 in the data set on Rattus norvegicus (acute, oral, mortality) is more than 5000 mg/kg; in the data set with Colinus virginianus, more than 2250 mg/kg; in the data set on Apis mellifera (duration: 48 hours, dermal), more than 100 µg/piece; with Apis mellifera (oral, unspecified), more than 100 µg/piece. The LOAEL in the data set with Rattus norvegicus (chronic, duration: 2 years, histopathology: neoplastic) worked out at 30 mg/kg-day. Besides, the NOAEL in the data set with Rattus norvegicus (reproduction developmental) worked out at 148 mg/kg-day; with Rattus norvegicus (subchronic, duration: 90 days) it was 2.6 mg/kg-day.
